Laboratory results taken from PubChem BioAssay (NCI).
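Where inhibition never reached the appropriate level, the endpoint shown equals the highest concentration tested. Otherwise, values were interpolated linearly from a five-concentration, 48-hour dose response in 96-well plates. Here, GI50 denotes the concentration required for 50% inhibition of growth. The concentration for full growth arrest is given as TGI.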

System: A549 NSCLC
Test: NCI tumour cell line growth inhibition, 48 h

Row | Compound | GI50 | TGI
1 | CC1(C)OC2C(CO[Si](C)(C)C(C)(C)C)OC(n3c(I)c(C#C[Si](C)(C)C)c(=O)[nH]c3=O)C2O1 (stereo not drawn) | > 100 µM | > 100 µM
2 | CN(C)CC[C@H](CSc1ccccc1)Nc1ccc(S(=O)(=O)NC(=O)c2ccc(N3CCN(Cc4ccccc4-c4ccc(Cl)cc4)CC3)cc2)cc1[N+](=O)[O-] | 3.73 µM | > 100 µM
3 | COc1ccc(-c2ccc(=O)oc2C#Cc2cc(OC)c(OC)c(OC)c2)cc1O | 0.563 µM | 21.9 µM
4 | COC(=O)C(=Cc1cc(OC)c(OC)c(OC)c1-c1cc2c(cc1C1(C)OCCS1)OCO2)C(=O)OC (stereo not drawn) |  | > 100 µM
5 | C#CC1/C(=C\C(=O)OC)CCCC1O (stereo not drawn) |  | > 100 µM
6 | O=C(/C=C/c1ccc[nH]1)c1ccc(-n2ccc(C(F)(F)F)n2)cc1 | 9.64 µM | > 100 µM
7 | O=C(c1ccco1)c1c(C(F)(F)F)nc2ccc(Cl)cc2[n+]1[O-] | > 100 µM | > 100 µM
8 | CC12CCC(=O)C[C@H]1CCC(OC=O)C2Br (stereo partly drawn) |  | > 100 µM
9 | COc1ccc(-c2nnc3n(C)c(=O)c4ccccc4n23)cc1N | 1.47 µM | > 100 µM
10 | Clc1cc2c(c(CSc3nc4ccccc4n4cccc34)c1)OCOC2 | > 100 µM | > 100 µM
11 | CCOC(=O)N[C@H]1CCc2cc(OC)c(OC)c(OC)c2-c2ccc(SC)c(=O)cc21 |  | > 100 µM
12 | COc1ccc2c(c1OCC(=O)O)C(=O)C(CCC(=O)O)CC2 (stereo not drawn) |  | > 100 µM
13 | Cc1ccc2nc(/C(=C/c3ccc(/C=C(\NC(=O)c4ccccc4)c4nc5ccc(C)cc5[nH]4)c(C)c3)NC(=O)c3ccccc3)[nH]c2c1 |  | 65.9 µM
14 | COC1C(OC(=S)Nc2ccccc2)c2ccccc2N1C(C)=O (stereo not drawn) |  | > 100 µM
15 | Cc1nc(Nc2cccnc2)sc1C(=O)/C=C/c1ccc(F)cc1 | 3.15 µM | > 100 µM
16 | O=C(Nc1cccc(Cl)c1)C(=O)C(C(=O)c1ccc2ccccc2c1)C1OC(=O)c2ccccc21 (stereo not drawn) |  | > 100 µM
17 | CC1=Cc2cccc(C)c2C(=O)C1=O |  | 25.1 µM
18 | COCC(OC)C(CC=C(C#N)C#N)OC (stereo not drawn) |  | > 100 µM

Row | Compound | GI50 | TGI
19 | NC1CCN(Cc2ccccc2)CC1 | > 100 µM | > 100 µM
20 | NNC(=O)CNc1cccc(Br)c1 |  | > 100 µM
21 | N#CC(C(=O)/C(=N\NC(N)=O)C(C#N)c1ccc(Cl)cc1)c1ccc(Cl)cc1 (stereo not drawn) |  | > 100 µM
22 | NC(N)=NCCCC(=O)O |  | > 100 µM
23 | Nc1ncn([C@@H]2O[C@H](CO)[C@@H](O)[C@H]2O)c(=O)n1 | 1.03 µM | > 100 µM
24 | COc1c(O)c2c(=O)cc3c4c5c(cc(=O)c6c(O)c(OC)c(CC(C)O)c(c(c1CC(C)O)c24)c65)OCO3 (stereo not drawn) |  | 8.39 µM
25 | COc1ccc(CCN(C)C2CCC(C#N)(c3ccc(OC)c(OC)c3)CC2)cc1OC (stereo not drawn) |  | > 100 µM
26 | CCOC(=O)c1nc2c(OC)nn(O)cc-2c1[N+](=O)[O-] |  | > 100 µM
27 | O=C(OC1CCC(=C2SCCCS2)[C@H]1C1SCCCS1)c1ccccc1 (stereo partly drawn) |  | > 100 µM
28 | O=C1CCC2(c3ccc(Cl)cc3)Nc3cc(Cl)ccc3N12 (stereo not drawn) |  | 26.5 µM
29 | CC1(C)COC(c2cccc3c2C(=O)c2cccc(Cl)c2-3)=N1 |  | > 100 µM
30 | CN(C)CCC(/C=C/c1ccccc1)=N\Nc1ccccc1 |  | 4.21 µM
31 | CCOC(=O)c1ccc(/C(C)=N/NC(N)=S)cc1 |  | > 100 µM
32 | c1ccc2c(OCCSCCCCCCCCCCSCCOc3cccc4ccccc34)cccc2c1 |  | > 100 µM
33 | NC(N)=N/N=C/c1c(Cl)cccc1Cl | 27.4 µM | > 100 µM
34 | Cc1cc2c(=O)c3ccccc3[nH]c2c(C(N)=O)c1C |  | > 100 µM
35 | O=C(Nc1cccc(C(F)(F)F)c1)c1ccc(NC2=C(Cl)C(=O)N(Cc3ccc(Cl)cc3Cl)C2=O)cc1 | 21.6 µM | 92.4 µM

System: CCRF-CEM leukemia
Test: NCI tumour cell line growth inhibition, 48 h

Row | Compound | GI50 | TGI
36 | CC1(C)OC2C(CO[Si](C)(C)C(C)(C)C)OC(n3c(I)c(C#C[Si](C)(C)C)c(=O)[nH]c3=O)C2O1 (stereo not drawn) | 2670 nM | 11 µM
37 | CN(C)CC[C@H](CSc1ccccc1)Nc1ccc(S(=O)(=O)NC(=O)c2ccc(N3CCN(Cc4ccccc4-c4ccc(Cl)cc4)CC3)cc2)cc1[N+](=O)[O-] | 360 nM | > 100 µM
38 | COc1ccc(-c2ccc(=O)oc2C#Cc2cc(OC)c(OC)c(OC)c2)cc1O | 331 nM | > 100 µM
39 | COC(=O)C(=Cc1cc(OC)c(OC)c(OC)c1-c1cc2c(cc1C1(C)OCCS1)OCO2)C(=O)OC (stereo not drawn) |  | > 100 µM
40 | C#CC1/C(=C\C(=O)OC)CCCC1O (stereo not drawn) |  | > 100 µM
41 | O=C(/C=C/c1ccc[nH]1)c1ccc(-n2ccc(C(F)(F)F)n2)cc1 | 1060 nM | > 100 µM
42 | O=C(c1ccco1)c1c(C(F)(F)F)nc2ccc(Cl)cc2[n+]1[O-] | > 100000 nM | > 100 µM
43 | CC12CCC(=O)C[C@H]1CCC(OC=O)C2Br (stereo partly drawn) |  | > 100 µM
44 | COc1ccc(-c2nnc3n(C)c(=O)c4ccccc4n23)cc1N | 2750 nM | > 100 µM
45 | Clc1cc2c(c(CSc3nc4ccccc4n4cccc34)c1)OCOC2 | > 100000 nM | > 100 µM
46 | CCOC(=O)N[C@H]1CCc2cc(OC)c(OC)c(OC)c2-c2ccc(SC)c(=O)cc21 |  | > 100 µM
47 | COc1ccc2c(c1OCC(=O)O)C(=O)C(CCC(=O)O)CC2 (stereo not drawn) |  | > 100 µM
48 | Cc1ccc2nc(/C(=C/c3ccc(/C=C(\NC(=O)c4ccccc4)c4nc5ccc(C)cc5[nH]4)c(C)c3)NC(=O)c3ccccc3)[nH]c2c1 |  | 41.9 µM
49 | COC1C(OC(=S)Nc2ccccc2)c2ccccc2N1C(C)=O (stereo not drawn) |  | > 100 µM
50 | Cc1nc(Nc2cccnc2)sc1C(=O)/C=C/c1ccc(F)cc1 | 1400 nM | 24.7 µM
51 | O=C(Nc1cccc(Cl)c1)C(=O)C(C(=O)c1ccc2ccccc2c1)C1OC(=O)c2ccccc21 (stereo not drawn) |  | 52.4 µM
52 | COCC(OC)C(CC=C(C#N)C#N)OC (stereo not drawn) |  | > 100 µM

Row | Compound | GI50 | TGI
53 | NC1CCN(Cc2ccccc2)CC1 | > 100000 nM | > 100 µM
54 | N#CC(C(=O)/C(=N\NC(N)=O)C(C#N)c1ccc(Cl)cc1)c1ccc(Cl)cc1 (stereo not drawn) |  | > 100 µM
55 | NC(N)=NCCCC(=O)O |  | > 100 µM
56 | Nc1ncn([C@@H]2O[C@H](CO)[C@@H](O)[C@H]2O)c(=O)n1 | 1950 nM | > 100 µM
57 | COc1c(O)c2c(=O)cc3c4c5c(cc(=O)c6c(O)c(OC)c(CC(C)O)c(c(c1CC(C)O)c24)c65)OCO3 (stereo not drawn) |  | 16.7 µM
58 | COc1ccc(CCN(C)C2CCC(C#N)(c3ccc(OC)c(OC)c3)CC2)cc1OC (stereo not drawn) |  | > 100 µM
59 | CCOC(=O)c1nc2c(OC)nn(O)cc-2c1[N+](=O)[O-] |  | 50.9 µM
60 | O=C(OC1CCC(=C2SCCCS2)[C@H]1C1SCCCS1)c1ccccc1 (stereo partly drawn) |  | > 100 µM
61 | O=C1CCC2(c3ccc(Cl)cc3)Nc3cc(Cl)ccc3N12 (stereo not drawn) |  | 10.7 µM
62 | O=C(/C(=C/c1ccc(Cl)cc1)c1ccccc1)c1ccccc1 |  | > 100 µM
63 | CC1(C)COC(c2cccc3c2C(=O)c2cccc(Cl)c2-3)=N1 |  | > 100 µM
64 | CN(C)CCC(/C=C/c1ccccc1)=N\Nc1ccccc1 |  | 15.2 µM
65 | CCOC(=O)c1ccc(/C(C)=N/NC(N)=S)cc1 |  | > 100 µM
66 | c1ccc2c(OCCSCCCCCCCCCCSCCOc3cccc4ccccc34)cccc2c1 |  | > 100 µM
67 | NC(N)=N/N=C/c1c(Cl)cccc1Cl | 28500 nM | > 100 µM
68 | Cc1cc2c(=O)c3ccccc3[nH]c2c(C(N)=O)c1C |  | > 100 µM
69 | O=C(Nc1cccc(C(F)(F)F)c1)c1ccc(NC2=C(Cl)C(=O)N(Cc3ccc(Cl)cc3Cl)C2=O)cc1 | 2270 nM | 5.46 µM

System: HCC-2998 colon
Test: NCI tumour cell line growth inhibition, 48 h

Row | Compound | GI50 | TGI
70 | CC1(C)OC2C(CO[Si](C)(C)C(C)(C)C)OC(n3c(I)c(C#C[Si](C)(C)C)c(=O)[nH]c3=O)C2O1 (stereo not drawn) | 4.52 µM | 17.7 µM
71 | CN(C)CC[C@H](CSc1ccccc1)Nc1ccc(S(=O)(=O)NC(=O)c2ccc(N3CCN(Cc4ccccc4-c4ccc(Cl)cc4)CC3)cc2)cc1[N+](=O)[O-] | 0.457 µM | 2.01 µM
72 | COc1ccc(-c2ccc(=O)oc2C#Cc2cc(OC)c(OC)c(OC)c2)cc1O | 0.265 µM | > 100 µM
73 | COC(=O)C(=Cc1cc(OC)c(OC)c(OC)c1-c1cc2c(cc1C1(C)OCCS1)OCO2)C(=O)OC (stereo not drawn) |  | > 100 µM
74 | C#CC1/C(=C\C(=O)OC)CCCC1O (stereo not drawn) |  | > 100 µM
75 | O=C(/C=C/c1ccc[nH]1)c1ccc(-n2ccc(C(F)(F)F)n2)cc1 | > 100 µM | > 100 µM
76 | O=C(c1ccco1)c1c(C(F)(F)F)nc2ccc(Cl)cc2[n+]1[O-] | 21.8 µM | 46.1 µM
77 | CC12CCC(=O)C[C@H]1CCC(OC=O)C2Br (stereo partly drawn) |  | > 100 µM
78 | COc1ccc(-c2nnc3n(C)c(=O)c4ccccc4n23)cc1N | 5.29 µM | > 100 µM
